Assay [1] addresses T1, rat GPR14 (U-II receptor) (Rattus norvegicus, UniProt P49684).
T1 construct: expressed in transfected cells
T1 sequence (P49684 1-386): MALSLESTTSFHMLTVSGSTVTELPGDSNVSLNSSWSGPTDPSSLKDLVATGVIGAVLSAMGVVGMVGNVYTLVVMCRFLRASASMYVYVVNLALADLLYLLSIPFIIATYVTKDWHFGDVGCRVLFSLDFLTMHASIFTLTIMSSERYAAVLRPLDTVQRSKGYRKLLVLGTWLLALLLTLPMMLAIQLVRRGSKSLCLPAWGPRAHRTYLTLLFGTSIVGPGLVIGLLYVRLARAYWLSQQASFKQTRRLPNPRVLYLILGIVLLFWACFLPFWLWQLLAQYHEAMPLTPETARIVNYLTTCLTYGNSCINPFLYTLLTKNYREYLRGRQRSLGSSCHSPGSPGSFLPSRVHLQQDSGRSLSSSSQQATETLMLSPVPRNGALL
Put plainly: Calcium flux assay (FLIPR). It is filed as cell-based. Particulars: Inhibition of acetyl-cyclic[Cys-Phe-Trp-Lys-(2-Nal)-Cys]-NH2 (1 nM) induced Ca2+ mobilization (FLIPR) in CHO cells transfected with rat UII receptor; 5 min incubation. The method in brief: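 Stable CHO cell line expressing cloned rat U-II receptor, seeded 24 h before assay, loaded with FLIPR calcium dye in HBSS/20 mM HEPES/0.1% BSA/2.5 mM probenecid, pH 7.4, for 1 hr at 37° C. Calcium mobilization read at room temperature (23° C.).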
Background: Calcium assays in cells follow changes in intracellular calcium, usually with a dye or a luminescent sensor.

Assay [2] has as its target T2, Human UII receptors (Homo sapiens, UniProt Q9UKP6).
T2 construct: host or cells: Human Skeletal Muscle Myoblasts (HSMM), intact adherent cells
T2 sequence (Q9UKP6 1-389): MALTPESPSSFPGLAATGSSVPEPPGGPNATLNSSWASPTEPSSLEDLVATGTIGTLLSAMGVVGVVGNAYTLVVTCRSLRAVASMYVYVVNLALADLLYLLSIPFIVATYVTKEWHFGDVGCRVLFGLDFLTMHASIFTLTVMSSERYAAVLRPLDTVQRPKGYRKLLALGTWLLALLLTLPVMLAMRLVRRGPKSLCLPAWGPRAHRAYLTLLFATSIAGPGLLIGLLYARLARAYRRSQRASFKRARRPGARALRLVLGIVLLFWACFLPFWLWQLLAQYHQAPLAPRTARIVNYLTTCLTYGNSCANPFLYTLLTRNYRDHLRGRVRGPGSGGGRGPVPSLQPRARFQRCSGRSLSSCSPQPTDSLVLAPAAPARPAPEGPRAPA
The assay is described as follows: Human radioligand binding assay, (125I)-U-II on HSMM. To be noted: 0.150 nM (125I)-U-II, intact Human Skeletal Muscle Myoblasts, 3 hrs, 25° C.; read-out: Ki. On the procedure:
Human Skeletal Muscle Myoblasts (HSMM) were obtained from Cambrex, and were cultured according to manufacturer's instruction. Cell viability was examined by trypan blue exclusion. Cells at less than 4 passages were used in all studies. […] The binding medium used was Dulbecco's modified Eagle's medium (DMEM) containing 2 mg/ml BSA and 25 mM HEPES (pH 7.4). […] The cells were washed 4× with the binding medium and solubilized in 1% SDS and 0.5 N NaOH. Radioactivity was quantified by gamma counting.

From patent US8759342B2, “Benzo[1,4]oxazin-3-one, benzo[1,4]thiazin-3-one and quinolin-2-one urotensin II receptor antagonists” (Janssen Pharmaceutica NV, priority 2006, dated 2014) come the findings set out here.

Structures are written as SMILES.

Usually IC50 stands for the concentration that gives 50% inhibition. What is called Ki is a dissociation constant, usually derived from enzyme kinetics or from competition with a known ligand. For the compound `O=C(NCCc1ccccc1)c1ccccc1C1CCN(CCN2C(=O)COc3ccccc32)CC1` [Cpd 1, 2-{1-[2-(3-oxo-2,3-dihydro-benzo[1,4]oxazin-4-yl)-ethyl]-piperidin-4-yl}-N-phenethyl-benzamide], in assay [1], the IC50 was 7.5 µM. Moreover, the Ki in assay [2] amounted to 2.9 µM.

With `O=C(NCCCc1ccccc1)c1ccccc1C1CCN(CCN2C(=O)COc3ccccc32)CC1` [Cpd 3], the IC50 in assay [1] worked out at 4.2 µM. In assay [2], the Ki was found to be 0.33 µM.

Regarding `O=C(NCCc1ccc2ccccc2c1)c1ccccc1C1CCN(CCN2C(=O)COc3ccccc32)CC1` [Cpd 20, N-(2-naphthalen-2-yl-ethyl)-2-{1-[2-(3-oxo-2,3-dihydro-benzo[1,4]oxazin-4-yl)-ethyl]-piperidin-4-yl}-benzamide], the IC50 in assay [1] came out at 2 µM. Besides, the Ki in assay [2] was found to be 0.72 µM.

`O=C(NCCc1c[nH]c2ccccc12)c1ccccc1C1CCN(CCN2C(=O)COc3ccccc32)CC1` [Cpd 26, N-[2-(1H-indol-3-yl)-ethyl]-2-{1-[2-(3-oxo-2,3-dihydro-benzo[1,4]oxazin-4-yl)-ethyl]-piperidin-4-yl}-benzamide]: in assay [1], the IC50 came to 2 µM. Further, in assay [2], the Ki came to 0.75 µM.

On to `O=C(NCCc1ccc(Br)cc1)c1ccccc1C1CCN(CCN2C(=O)COc3ccccc32)CC1` [Cpd 34, N-[2-(4-bromo-phenyl)-ethyl]-2-{1-[2-(3-oxo-2,3-dihydro-benzo[1,4]oxazin-4-yl)-ethyl]-piperidin-4-yl}-benzamide], for which the IC50 in assay [1] stood at 3 µM. For the same compound, the Ki in assay [2] was determined as 0.62 µM.

Take `CC(C)(C)OC(=O)NCCCCNC(=O)c1ccccc1C1CCN(CCN2C(=O)COc3ccccc32)CC1` [Cpd 35, [4-(2-{1-[2-(3-oxo-2,3-dihydro-benzo[1,4]oxazin-4-yl)-ethyl]-piperidin-4-yl}-benzoylamino)-butyl]-carbamic acid tert-butyl ester]: in assay [1], the IC50 turned out to be 3 µM. The Ki in assay [2] is 0.59 µM.

Regarding `CC(C)(C)OC(=O)N1CCC(CNC(=O)c2ccccc2C2CCN(CCN3C(=O)COc4ccccc43)CC2)CC1` [Cpd 50, 4-[(2-{1-[2-(3-oxo-2,3-dihydro-benzo[1,4]oxazin-4-yl)-ethyl]-piperidin-4-yl}-benzoylamino)-methyl]-piperidine-1-carboxylic acid tert-butyl ester], the IC50 in assay [1] came to 2.5 µM. For the same compound, in assay [2], the Ki turned out to be 0.43 µM.

Regarding `O=C(NCCNC(=O)c1ccccc1C1CCN(CCN2C(=O)COc3ccccc32)CC1)Nc1cccc2ccccc12` [Cpd 55, N-[2-(3-naphthalen-1-yl-ureido)-ethyl]-2-{1-[2-(3-oxo-2,3-dihydro-benzo[1,4]oxazin-4-yl)-ethyl]-piperidin-4-yl}-benzamide], the IC50 in assay [1] is 2 µM. The Ki in assay [2] came out at 0.84 µM.

In the case of `O=C(NCCc1ccccc1)c1cc(Cl)ccc1C1CCN(CCN2C(=O)COc3ccccc32)CC1` [Cpd 57, 5-chloro-2-{1-[2-(3-oxo-2,3-dihydro-benzo[1,4]oxazin-4-yl)-ethyl]-piperidin-4-yl}-N-phenethyl-benzamide], the concentration for half-maximal inhibition (IC50) in assay [1] was 1.3 µM. For the same compound, the Ki in assay [2] was found to be 0.19 µM.

In the case of `CC(C)(C)OC(=O)N1CCC(CNC(=O)c2cc(Cl)ccc2C2CCN(CCN3C(=O)COc4ccccc43)CC2)CC1` [Cpd 58, 4-[(5-chloro-2-{1-[2-(3-oxo-2,3-dihydro-benzo[1,4]oxazin-4-yl)-ethyl]-piperidin-4-yl}-benzoylamino)-methyl]-piperidine-1-carboxylic acid tert-butyl ester], in assay [1], the IC50 amounted to 0.6 µM. Moreover, in assay [2], the Ki came to 0.14 µM.

As for `CC(C)(C)OC(=O)NCCCCNC(=O)c1cc(Cl)ccc1C1CCN(CCN2C(=O)COc3ccccc32)CC1` [Cpd 60, [4-(5-chloro-2-{1-[2-(3-oxo-2,3-dihydro-benzo[1,4]oxazin-4-yl)-ethyl]-piperidin-4-yl}-benzoylamino)-butyl]-carbamic acid tert-butyl ester], the IC50 in assay [1] was 0.5 µM. Further, the Ki in assay [2] came out at 0.15 µM.

Take `O=C(NCCc1ccc2ccccc2c1)c1cc(Cl)ccc1C1CCN(CCN2C(=O)COc3ccccc32)CC1` [Cpd 61, 5-chloro-N-(2-naphthalen-2-yl-ethyl)-2-{1-[2-(3-oxo-2,3-dihydro-benzo[1,4]oxazin-4-yl)-ethyl]-piperidin-4-yl}-benzamide]: the IC50 in assay [1] is 2 µM. Also, in assay [2], the Ki came out at 0.26 µM.

With `O=C(NCC1CCN(C(=O)OCc2ccccc2)CC1)c1cc(Cl)ccc1C1CCN(CCN2C(=O)COc3ccccc32)CC1` [Cpd 63, 4-[(5-chloro-2-{1-[2-(3-oxo-2,3-dihydro-benzo[1,4]oxazin-4-yl)-ethyl]-piperidin-4-yl}-benzoylamino)-methyl]-piperidine-1-carboxylic acid benzyl ester], in assay [1], the IC50 stood at 0.4 µM. Also, the Ki in assay [2] was determined as 0.054 µM.

Regarding `CC(C)(C)CC(=O)N1CCC(CNC(=O)c2cc(Cl)ccc2C2CCN(CCN3C(=O)COc4ccccc43)CC2)CC1` [Cpd 65, 5-chloro-N-[1-(3,3-dimethyl-butyryl)-piperidin-4-ylmethyl]-2-{1-[2-(3-oxo-2,3-dihydro-benzo[1,4]oxazin-4-yl)-ethyl]-piperidin-4-yl}-benzamide], the IC50 in assay [1] stood at 0.33 µM. Further, in assay [2], the Ki came to 0.032 µM.

For the compound `CC(C)(C)OC(=O)N1CCN(CCNC(=O)c2cc(Cl)ccc2C2CCN(CCN3C(=O)COc4ccccc43)CC2)CC1` [Cpd 66, 4-[2-(5-chloro-2-{1-[2-(3-oxo-2,3-dihydro-benzo[1,4]oxazin-4-yl)-ethyl]-piperidin-4-yl}-benzoylamino)-ethyl]-piperazine-1-carboxylic acid tert-butyl ester], in assay [1], the IC50 worked out at 0.015 µM. Besides, the Ki in assay [2] stood at 0.057 µM.

As to `O=C(NCC1CCN(C(=O)NCc2ccccc2)CC1)c1cc(Cl)ccc1C1CCN(CCN2C(=O)COc3ccccc32)CC1` [Cpd 67, 4-[(5-chloro-2-{1-[2-(3-oxo-2,3-dihydro-benzo[1,4]oxazin-4-yl)-ethyl]-piperidin-4-yl}-benzoylamino)-methyl]-piperidine-1-carboxylic acid benzylamide], the IC50 in assay [1] came out at 0.21 µM. For the same compound, the Ki in assay [2] was 0.03 µM.

In the case of `CC(C)(C)OC(=O)N1CCC(CCNC(=O)c2cc(Cl)ccc2C2CCN(CCN3C(=O)COc4ccccc43)CC2)CC1` [Cpd 68, 4-[2-(5-chloro-2-{1-[2-(3-oxo-2,3-dihydro-benzo[1,4]oxazin-4-yl)-ethyl]-piperidin-4-yl}-benzoylamino)-ethyl]-piperidine-1-carboxylic acid tert-butyl ester], the IC50 in assay [1] worked out at 0.1 µM. Moreover, the Ki in assay [2] amounted to 0.047 µM.

Consider `O=C(NCCCCNC(=O)c1cc(Cl)ccc1C1CCN(CCN2C(=O)COc3ccccc32)CC1)OCc1ccccc1` [Cpd 69, [4-(5-chloro-2-{1-[2-(3-oxo-2,3-dihydro-benzo[1,4]oxazin-4-yl)-ethyl]-piperidin-4-yl}-benzoylamino)-butyl]-carbamic acid benzyl ester], for which the IC50 in assay [1] came to 0.15 µM. The Ki in assay [2] worked out at 0.062 µM.

For `CC(C)(C)OC(=O)NCCCCCNC(=O)c1cc(Cl)ccc1C1CCN(CCN2C(=O)COc3ccccc32)CC1` [Cpd 70, [5-(5-chloro-2-{1-[2-(3-oxo-2,3-dihydro-benzo[1,4]oxazin-4-yl)-ethyl]-piperidin-4-yl}-benzoylamino)-pentyl]-carbamic acid tert-butyl ester], the IC50 in assay [1] turned out to be 0.032 µM. In addition, the Ki in assay [2] was determined as 0.025 µM.

Consider `O=C(NCC1CCN(S(=O)(=O)Cc2ccccc2)CC1)c1cc(Cl)ccc1C1CCN(CCN2C(=O)COc3ccccc32)CC1` [Cpd 72, 5-chloro-2-{1-[2-(3-oxo-2,3-dihydro-benzo[1,4]oxazin-4-yl)-ethyl]-piperidin-4-yl}-N-(1-phenylmethanesulfonyl-piperidin-4-ylmethyl)-benzamide], for which, in assay [1], the IC50 was determined as 0.053 µM. Also, the inhibitory constant (Ki) in assay [2] was 0.03 µM.

In the case of `CC(C)(C)OC(=O)NCCCCCCNC(=O)c1cc(Cl)ccc1C1CCN(CCN2C(=O)COc3ccccc32)CC1` [Cpd 74, [6-(5-chloro-2-{1-[2-(3-oxo-2,3-dihydro-benzo[1,4]oxazin-4-yl)-ethyl]-piperidin-4-yl}-benzoylamino)-hexyl]-carbamic acid tert-butyl ester], the IC50 in assay [1] turned out to be 0.045 µM. Besides, the Ki in assay [2] is 0.1 µM.
